Data as given in article PMC3183052, “Immunoprotectivity of HLA-A2 CTL Peptides Derived from Respiratory Syncytial Virus Fusion Protein in HLA-A2 Transgenic Mouse” (PLoS ONE, 2011).

Tests used:
[1] = molecular target: T1, HLA-A*0201 (Homo sapiens, UniProt P04439, D140Y/D185E/D98H/E176V/E277Q/G131W/G231S/I119V/I121R/I166T/I218V/L300P/L318F/N151K/N90K/P208A/P217A/Q86G/Q94H/R138H/R169H/T345S); experiment: T2 cell-stabilization assay (T2-binding); conditions: T2 cells 5×10^5, peptide 50 µg/mL + β2-microglobulin 5 µg/mL, 28°C 16–18 h, then brefeldin A 10 µg/mL 37°C 3 h; FITC anti-HLA-A2, flow cytometry; MFI relative to negative control HCV C55-74 (set as 1)
T1 construct: Human T2 cells (purchased from the American Type Culture Collection, ATCC) (ATCC No. CRL-1992) expressing the HLA-A*0201 gene; endogenous in cells; host or cells: human T2 cells (ATCC CRL-1992)
Outline: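 T2 cells were pulsed with 9-mer peptides (50 µg/mL) plus β2-microglobulin (5 µg/mL) at 28°C for 16–18 hours, then brefeldin A (10 µg/mL) at 37°C for 3 hours. Surface HLA-A2 was stained with FITC anti-HLA-A2 and read by flow cytometry. Binding is MFI relative to T2 cells loaded with HCV peptide C55-74 (MFI = 1).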

[2] = test system: splenocytes from HLA-A*0201 transgenic C57BL/6 mice; experiment: IL-2 ELISPOT of splenocytes restimulated with peptide; assay type: cell-based, mouse
Outline: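 HLA-A*0201 transgenic C57BL/6 mice primed and boosted intranasally 20 days apart with 1×10^7 pfu rAd-F0 or 1×10^4 live RSV B1; splenocytes taken 10 days post-boost. Splenocytes restimulated 48 h at 37°C with 2 µg individual RSV F 9-mer peptides; spots counted, expressed per 5×10^5 splenocytes.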

Sequence: YMLTNSELL [peptide 14, HLA-A*0201-restricted 9-mer synthetic peptide from F protein of RSV-B1 strain]
- T2-binding Ratio of MFI [1]: 1.71
- IL-2 ELISPOT, RSV ([2]; splenocytes of HLA-Tg B6 mice primed and boosted i.n. with 10^4 pfu RSV-B1, restimulated with 2 µg peptide, representative of two experiments, five mice per group): 34.5 cytokine-secreting cells per 5×10^5 splenocytes
- IL-2 ELISPOT, rAd-F0 ([2]; splenocytes of HLA-Tg B6 mice primed and boosted i.n. with 10^7 pfu rAd-F0, restimulated with 2 µg peptide, representative of two experiments, five mice per group): 200 cytokine-secreting cells per 5×10^5 splenocytes
- IL-2 level in restimulated splenocytes (ELISPOT, text grading) ([2]; splenocytes of rAd-F0- or RSV B1-primed and boosted HLA-Tg B6 mice, high = over 100 spots, moderate = over 50 spots): over 100 spots
